Experimental findings from patent US8022206B2 (OSI Pharmaceuticals, LLC, priority 2008, dated 2011) are described below.

One experiment has as its target RON (human) (Homo sapiens, UniProt Q04912). The experiment in a line: RON (human) AlphaScreen kinase assay, Km of ATP. Type of experiment: biochemical. The following applies: AlphaScreen, Km of ATP; read-out: RON biochemical IC50. In short, it runs like this:
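Detection used PT66 AlphaScreen beads added in Tris pH 7.5/NaCl/EDTA/BSA buffer, read after 1 h incubation. Vehicle-only DMSO wells served as controls.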
For orientation: In Alpha technology, singlet oxygen from a donor bead excites a nearby acceptor bead.

The next experiment addresses MET (human) (Homo sapiens, UniProt P08581). Briefly: MET (human) AlphaScreen kinase assay, Km of ATP. Particulars: AlphaScreen, Km of ATP; read-out: Met biochemical IC50. Type of experiment: biochemical. In short, it runs like this: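 Human MET at lot-optimised concentration in 50 mM Tris pH 7.4 buffer with 1 mM DTT, compound at 1% DMSO final; enzyme starts the reaction, 60 min at RT.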

As usually defined, the IC50 is the concentration at which inhibition is half-maximal.

Chain of MET (human) (P08581 25-1390): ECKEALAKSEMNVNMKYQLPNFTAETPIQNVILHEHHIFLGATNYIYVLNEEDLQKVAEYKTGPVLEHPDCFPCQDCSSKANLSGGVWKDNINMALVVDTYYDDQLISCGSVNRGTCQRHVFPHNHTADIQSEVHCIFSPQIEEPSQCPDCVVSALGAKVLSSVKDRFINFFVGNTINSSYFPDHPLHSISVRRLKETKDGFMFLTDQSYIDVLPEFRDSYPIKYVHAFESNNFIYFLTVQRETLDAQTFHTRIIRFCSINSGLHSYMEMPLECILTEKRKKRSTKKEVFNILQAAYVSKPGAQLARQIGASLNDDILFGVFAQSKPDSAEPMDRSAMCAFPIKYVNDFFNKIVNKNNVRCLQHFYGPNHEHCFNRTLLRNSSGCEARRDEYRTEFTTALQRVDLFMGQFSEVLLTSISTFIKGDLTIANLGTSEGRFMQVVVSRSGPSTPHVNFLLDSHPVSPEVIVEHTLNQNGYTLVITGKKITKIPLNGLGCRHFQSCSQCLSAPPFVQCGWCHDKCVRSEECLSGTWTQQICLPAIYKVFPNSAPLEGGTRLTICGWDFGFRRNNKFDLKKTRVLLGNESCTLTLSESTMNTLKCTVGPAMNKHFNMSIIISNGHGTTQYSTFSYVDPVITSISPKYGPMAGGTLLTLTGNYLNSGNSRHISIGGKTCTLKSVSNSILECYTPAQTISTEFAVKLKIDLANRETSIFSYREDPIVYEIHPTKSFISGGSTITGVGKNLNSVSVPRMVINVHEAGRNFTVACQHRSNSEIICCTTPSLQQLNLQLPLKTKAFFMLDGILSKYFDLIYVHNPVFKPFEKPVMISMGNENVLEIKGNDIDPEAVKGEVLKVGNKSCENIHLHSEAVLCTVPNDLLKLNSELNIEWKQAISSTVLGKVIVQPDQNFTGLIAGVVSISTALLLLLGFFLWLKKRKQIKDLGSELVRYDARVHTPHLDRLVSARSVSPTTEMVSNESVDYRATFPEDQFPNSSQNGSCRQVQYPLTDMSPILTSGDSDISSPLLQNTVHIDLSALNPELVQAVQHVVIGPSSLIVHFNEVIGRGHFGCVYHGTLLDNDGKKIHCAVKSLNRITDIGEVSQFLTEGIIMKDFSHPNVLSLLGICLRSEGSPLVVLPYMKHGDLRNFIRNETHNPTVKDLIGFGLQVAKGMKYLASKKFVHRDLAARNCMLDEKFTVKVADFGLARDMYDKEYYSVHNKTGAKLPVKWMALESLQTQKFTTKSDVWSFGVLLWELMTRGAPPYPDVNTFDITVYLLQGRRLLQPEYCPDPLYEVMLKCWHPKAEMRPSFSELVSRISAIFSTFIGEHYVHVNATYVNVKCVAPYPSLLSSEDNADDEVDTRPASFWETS
Chain of RON (human) (Q04912 25-1400): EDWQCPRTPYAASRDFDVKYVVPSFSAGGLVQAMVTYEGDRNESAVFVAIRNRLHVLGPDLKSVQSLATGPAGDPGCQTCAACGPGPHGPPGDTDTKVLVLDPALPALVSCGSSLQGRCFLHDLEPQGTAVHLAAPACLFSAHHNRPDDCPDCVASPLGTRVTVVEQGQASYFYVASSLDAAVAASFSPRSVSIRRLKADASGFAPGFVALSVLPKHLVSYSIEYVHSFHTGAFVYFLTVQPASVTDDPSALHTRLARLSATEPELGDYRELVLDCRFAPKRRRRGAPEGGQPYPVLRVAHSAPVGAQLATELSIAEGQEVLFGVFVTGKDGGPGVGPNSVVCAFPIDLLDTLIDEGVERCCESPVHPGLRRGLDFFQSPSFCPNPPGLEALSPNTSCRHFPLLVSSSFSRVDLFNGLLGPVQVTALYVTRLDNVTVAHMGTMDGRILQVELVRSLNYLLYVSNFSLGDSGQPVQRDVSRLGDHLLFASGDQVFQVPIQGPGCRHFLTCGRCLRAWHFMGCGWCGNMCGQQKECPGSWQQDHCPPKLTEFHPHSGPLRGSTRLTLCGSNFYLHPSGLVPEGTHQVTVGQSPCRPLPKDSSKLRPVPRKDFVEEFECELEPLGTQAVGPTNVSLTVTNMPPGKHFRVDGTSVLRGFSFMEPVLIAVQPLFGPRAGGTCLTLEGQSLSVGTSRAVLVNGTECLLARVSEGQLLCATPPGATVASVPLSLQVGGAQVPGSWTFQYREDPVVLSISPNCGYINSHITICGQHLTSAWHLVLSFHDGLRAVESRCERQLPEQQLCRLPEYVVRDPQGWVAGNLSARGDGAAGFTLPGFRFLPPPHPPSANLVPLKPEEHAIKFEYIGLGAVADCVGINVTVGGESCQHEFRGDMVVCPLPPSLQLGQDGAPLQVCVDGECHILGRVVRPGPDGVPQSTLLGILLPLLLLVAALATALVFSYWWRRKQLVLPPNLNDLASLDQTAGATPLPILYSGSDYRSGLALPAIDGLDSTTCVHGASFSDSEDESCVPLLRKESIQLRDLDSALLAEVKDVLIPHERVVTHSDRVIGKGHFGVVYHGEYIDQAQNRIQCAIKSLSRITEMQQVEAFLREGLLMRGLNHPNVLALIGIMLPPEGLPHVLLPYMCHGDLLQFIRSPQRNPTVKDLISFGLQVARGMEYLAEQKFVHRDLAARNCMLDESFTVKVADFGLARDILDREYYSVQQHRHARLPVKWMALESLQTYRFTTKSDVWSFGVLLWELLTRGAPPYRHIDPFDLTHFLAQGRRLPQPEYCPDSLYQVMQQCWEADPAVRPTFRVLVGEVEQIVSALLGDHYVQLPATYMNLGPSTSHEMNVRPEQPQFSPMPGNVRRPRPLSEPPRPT

Take `Nc1ncc2c(-c3cnn(C4CCNCC4)c3)coc2c1OCCc1ccccc1` [Example 416, 7-Phenethyloxy-3-(1-piperidin-4-yl-1H-pyrazol-4-yl)furo[3,2-c]pyridin-6-ylamine]: the IC50 on RON (human) and at MET (human) was 500 to 5000 nM each time.
On to `CC(Cc1c(Cl)cccc1Cl)Oc1c(N)ncc2c(-c3cnn(C4CCNCC4)c3)coc12` (stereo not drawn) [Example 417, 7-[2-(2,6-Dichlorophenyl)-1-methylethoxy]-3-(1-piperidin-4-yl-1H-pyrazol-4-yl)furo[3,2-c]pyridin-6-ylamine], for which the half-maximal inhibitory concentration (IC50) on RON (human) and at MET (human) was 500 to 5000 nM each time.
On to `CC(Cc1c(F)cccc1F)Oc1c(N)ncc2c(-c3cnn(C4CCNCC4)c3)coc12` (stereo not drawn) [Example 418, 7-[2-(2,6-Difluorophenyl)-1-methylethoxy]-3-(1-piperidin-4-yl-1H-pyrazol-4-yl)furo[3,2-c]pyridin-6-ylamine], for which the values for the IC50 on RON (human) and on MET (human) were 500 to 5000 nM and less than 500 nM, respectively.
Consider `CC(Cc1c(F)cccc1Cl)Oc1c(N)ncc2c(-c3cnn(C4CCNCC4)c3)coc12` (stereo not drawn) [Example 419, 7-[2-(2-Chloro-6-fluorophenyl)-1-methylethoxy]-3-(1-piperidin-4-yl-1H-pyrazol-4-yl)furo[3,2-c]pyridin-6-ylamine], for which the concentration for half-maximal inhibition (IC50) at RON (human) and on MET (human) was 500 to 5000 nM in each case.
On to `CC(Oc1c(N)ncc2c(-c3cnn(C4CCNCC4)c3)coc12)c1ccc(C(N)=O)cc1` (stereo not drawn) [Example 420, 4-{1-[6-Amino-3-(1-piperidin-4-yl-1H-pyrazol-4-yl)furo[3,2-c]pyridin-7-yloxy]ethyl}benzamide], for which the IC50 at RON (human) lay in the range of 5000 to 20000 nM; on MET (human), 500 to 5000 nM.
Taken in the same sequence, the figures for `CNC(=O)c1ccc(C(C)Oc2c(N)ncc3c(-c4cnn(C5CCNCC5)c4)coc23)cc1` (stereo not drawn) [Example 421, 4-{1-[6-Amino-3-(1-piperidin-4-yl-1H-pyrazol-4-yl)furo[3,2-c]pyridin-7-yloxy]ethyl}-N-methylbenzamide] were 5000 to 20000 nM and 500 to 5000 nM.
The matching figures for `COC(=O)c1ccc(C(C)Oc2c(N)ncc3c(-c4cnn(C5CCNCC5)c4)coc23)cc1` (stereo not drawn) [Example 422, 4-{1-[6-Amino-3-(1-piperidin-4-yl-1H-pyrazol-4-yl)furo[3,2-c]pyridin-7-yloxy]ethyl}benzoic acid methyl ester]: 500 to 5000 nM and 500 to 5000 nM.
In the case of `CC(Cc1ccccc1F)Oc1c(N)ncc2c(-c3cnn(C4CCNCC4)c3)coc12` (stereo not drawn) [Example 423, 7-[2-(2-Fluorophenyl)-1-methylethoxy]-3-(1-piperidin-4-yl-1H-pyrazol-4-yl)furo[3,2-c]pyridin-6-ylamine], the half-maximal inhibitory concentration (IC50) at RON (human) was 500 to 5000 nM; at MET (human), less than 500 nM.
`CC(Cc1cccc(F)c1)Oc1c(N)ncc2c(-c3cnn(C4CCNCC4)c3)coc12` (stereo not drawn) [Example 424, 7-[2-(3-Fluorophenyl)-1-methylethoxy]-3-(1-piperidin-4-yl-1H-pyrazol-4-yl)furo[3,2-c]pyridin-6-ylamine]: the IC50 was 500 to 5000 nM on RON (human) and less than 500 nM on MET (human).
For `CC(Cc1ccc(F)cc1)Oc1c(N)ncc2c(-c3cnn(C4CCNCC4)c3)coc12` (stereo not drawn) [Example 425, 7-[2-(4-Fluorophenyl)-1-methylethoxy]-3-(1-piperidin-4-yl-1H-pyrazol-4-yl)furo[3,2-c]pyridin-6-ylamine], the results for the IC50 at RON (human) and at MET (human) were 500 to 5000 nM and less than 500 nM, respectively.
Take `CC(Cc1ccccc1Cl)Oc1c(N)ncc2c(-c3cnn(C4CCNCC4)c3)coc12` (stereo not drawn) [Example 426, 7-[2-(2-Chlorophenyl)-1-methylethoxy]-3-(1-piperidin-4-yl-1H-pyrazol-4-yl)furo[3,2-c]pyridin-6-ylamine]: the IC50 on RON (human) is 500 to 5000 nM; on MET (human) it was less than 500 nM.
Turning to `CC(Cc1cccc(Cl)c1)Oc1c(N)ncc2c(-c3cnn(C4CCNCC4)c3)coc12` (stereo not drawn) [Example 427, 7-[2-(3-Chlorophenyl)-1-methylethoxy]-3-(1-piperidin-4-yl-1H-pyrazol-4-yl)furo[3,2-c]pyridin-6-ylamine], the concentration for half-maximal inhibition (IC50) at RON (human) and at MET (human) was less than 500 nM throughout.
In the case of `CC(Cc1ccc(Cl)c(Cl)c1)Oc1c(N)ncc2c(-c3cnn(C4CCNCC4)c3)coc12` (stereo not drawn) [Example 428, 7-[2-(3,4-Dichlorophenyl)-1-methylethoxy]-3-(1-piperidin-4-yl-1H-pyrazol-4-yl)furo[3,2-c]pyridin-6-ylamine], the IC50 is less than 500 nM at RON (human) and 500 to 5000 nM at MET (human).
The matching figures for `COc1ccc(CC(C)Oc2c(N)ncc3c(-c4cnn(C5CCNCC5)c4)coc23)cc1` (stereo not drawn) [Example 431, 7-[2-(4-Methoxyphenyl)-1-methylethoxy]-3-(1-piperidin-4-yl-1H-pyrazol-4-yl)furo[3,2-c]pyridin-6-ylamine]: 500 to 5000 nM and 500 to 5000 nM.
As for `CC(Oc1c(N)ncc2c(-c3cnn(C4CCNCC4)c3)coc12)c1ccc2ccccc2c1` (stereo not drawn) [Example 432, 7-(1-Naphthalen-2-ylethoxy)-3-(1-piperidin-4-yl-1H-pyrazol-4-yl)furo[3,2-c]pyridin-6-ylamine], the IC50 at RON (human) and on MET (human) was 500 to 5000 nM in each case.
Turning to `N#CCc1ccccc1COc1c(N)ncc2c(-c3cnn(C4CCNCC4)c3)coc12` [Example 433, {2-[6-Amino-3-(1-piperidin-4-yl-1H-pyrazol-4-yl)furo[3,2-c]pyridin-7-yloxymethyl]phenyl}acetonitrile], the IC50 at RON (human) and at MET (human) was 500 to 5000 nM each time.
For the compound `CC(Oc1c(N)ncc2c(-c3cnn(C4CCNCC4)c3)coc12)c1cc(F)cc(Br)c1` (stereo not drawn) [Example 434, 7-[1-(3-Bromo-5-fluorophenyl)ethoxy]-3-(1-piperidin-4-yl-1H-pyrazol-4-yl)furo[3,2-c]pyridin-6-ylamine], the IC50 at RON (human) and at MET (human) was less than 500 nM in each case.
As for `CC(Cc1ccccc1C(F)(F)F)Oc1c(N)ncc2c(-c3cnn(C4CCNCC4)c3)coc12` (stereo not drawn) [Example 435, 7-[1-Methyl-2-(2-trifluoromethylphenyl)ethoxy]-3-(1-piperidin-4-yl-1H-pyrazol-4-yl)furo[3,2-c]pyridin-6-ylamine], the half-inhibitory concentration (IC50) at RON (human) is 500 to 5000 nM; on MET (human), less than 500 nM.
On to `CC(Cc1ccccc1Br)Oc1c(N)ncc2c(-c3cnn(C4CCNCC4)c3)coc12` (stereo not drawn) [Example 436, 7-[2-(2-Bromophenyl)-1-methylethoxy]-3-(1-piperidin-4-yl-1H-pyrazol-4-yl)furo[3,2-c]pyridin-6-ylamine], for which the 50% inhibitory concentration (IC50) on RON (human) and at MET (human) was less than 500 nM throughout.
Turning to `COc1cccc(CC(C)Oc2c(N)ncc3c(-c4cnn(C5CCNCC5)c4)coc23)c1` (stereo not drawn) [Example 437, 7-[2-(3-Methoxyphenyl)-1-methylethoxy]-3-(1-piperidin-4-yl-1H-pyrazol-4-yl)furo[3,2-c]pyridin-6-ylamine], the concentration for half-maximal inhibition (IC50) on RON (human) and on MET (human) was less than 500 nM throughout.
For `CC(Cc1cccc(Br)c1)Oc1c(N)ncc2c(-c3cnn(C4CCNCC4)c3)coc12` (stereo not drawn) [Example 439, 7-[2-(3-Bromophenyl)-1-methylethoxy]-3-(1-piperidin-4-yl-1H-pyrazol-4-yl)furo[3,2-c]pyridin-6-ylamine], the IC50 at RON (human) and at MET (human) was less than 500 nM throughout.
Take `CC(Cc1c(Cl)cccc1C(F)(F)F)Oc1c(N)ncc2c(-c3cnn(C4CCNCC4)c3)coc12` (stereo not drawn) [Example 440, 7-[2-(2-Chloro-6-trifluoromethylphenyl)-1-methylethoxy]-3-(1-piperidin-4-yl-1H-pyrazol-4-yl)furo[3,2-c]pyridin-6-ylamine]: the half-maximal inhibitory concentration (IC50) was 500 to 5000 nM on RON (human) and less than 500 nM at MET (human).
As for `CC(Cc1c(F)cccc1C(F)(F)F)Oc1c(N)ncc2c(-c3cnn(C4CCNCC4)c3)coc12` (stereo not drawn) [Example 441, 7-[2-(2-Fluoro-6-trifluoromethylphenyl)-1-methylethoxy]-3-(1-piperidin-4-yl-1H-pyrazol-4-yl)furo[3,2-c]pyridin-6-ylamine], the IC50 was 500 to 5000 nM on RON (human) and less than 500 nM on MET (human).
Take `CC(Oc1c(N)ncc2c(-c3cnn(C4CCNCC4)c3)coc12)c1c(Cl)cc(Br)cc1Cl` (stereo not drawn) [Example 442, 7-[1-(4-Bromo-2,6-dichlorophenyl)ethoxy]-3-(1-piperidin-4-yl-1H-pyrazol-4-yl)furo[3,2-c]pyridin-6-ylamine]: the IC50 on RON (human) and on MET (human) was less than 500 nM each time.
For `CC(Oc1c(N)ncc2c(-c3cnn(C4CCNCC4)c3)coc12)c1cccc(-c2ccccc2)c1` (stereo not drawn) [Example 444, 7-(1-Biphenyl-3-ylethoxy)-3-(1-piperidin-4-yl-1H-pyrazol-4-yl)furo[3,2-c]pyridin-6-ylamine], the IC50 at RON (human) and on MET (human) was 500 to 5000 nM throughout.
For the compound `CC(Oc1c(N)ncc2c(-c3cnn(C4CCNCC4)c3)coc12)c1cccc(-c2ccc[nH]2)c1` (stereo not drawn) [Example 445], the IC50 on RON (human) and on MET (human) was 500 to 5000 nM in each case.
Turning to `CC(Oc1c(N)ncc2c(-c3cnn(C4CCNCC4)c3)coc12)c1cccc(-c2ccn[nH]2)c1` (stereo not drawn) [Example 446], the figures for the half-maximal inhibitory concentration (IC50) at RON (human) and at MET (human) were less than 500 nM and 500 to 5000 nM, respectively.
In the case of `CC(Oc1c(N)ncc2c(-c3cnn(C4CCNCC4)c3)coc12)c1cccc(-c2cn[nH]c2)c1` (stereo not drawn) [Example 447], the IC50 on RON (human) and at MET (human) was 500 to 5000 nM in each case.
In the case of `CC(Oc1c(N)ncc2c(-c3cnn(C4CCNCC4)c3)coc12)c1cccc(-c2cnn(C)c2)c1` (stereo not drawn) [Example 448, 7-{1-[3-(1-Methyl-1H-pyrazol-4-yl)phenyl]ethoxy}-3-(1-piperidin-4-yl-1H-pyrazol-4-yl)furo[3,2-c]pyridin-6-ylamine], the IC50 at RON (human) and on MET (human) was 500 to 5000 nM throughout.
On to `CC(Oc1c(N)ncc2c(-c3cnn(C4CCNCC4)c3)coc12)c1cc(F)cc(-c2ccccc2)c1` (stereo not drawn) [Example 449, 7-[1-(5-Fluorobiphenyl-3-yl)ethoxy]-3-(1-piperidin-4-yl-1H-pyrazol-4-yl)furo[3,2-c]pyridin-6-ylamine], for which the IC50 at RON (human) and at MET (human) was 500 to 5000 nM each time.
